Reference: patent US11499963B2, “Induction of differentiation of induced pluripotent stem cells into intestinal epithelial cells” (PUBLIC UNIVERSITY CORPORATION NAGOYA CITY UNIVERSITY, priority 2016, dated 2022)
Each block holds one compound with its values, some of them ahead of it.

Tests used:
OATP = test: Uptake of estrone-3-sulfate (ES) (OATP transport activity); type: cell-based, human; conditions: BSP 0.2 mmol/L; cells induced to differentiate using 8-Br-cAMP and IBMX
Experimental: (§1) After completion of induction of differentiation, incubation was performed at 37° C. or 4° C. with an uptake solution containing tritium-labeled Gly-Sar or ES. In the Gly-Sar uptake experiment, there was used an uptake solution containing 137 mmol/L sodium chloride, 5.4 mmol/L potassium chloride, 0.81 mmol/L magnesium sulfate, 0.44 mmol/L potassium dihydrogen phosphate, 0.34 mmol/L disodium hydrogen phosphate, 1.3 mmol/L calcium chloride, 4.2 mmol/L sodium hydrogen carbonate, 5.6 mmol/L D-glucose and 10 mmol/L MES and having a pH of 6.0. In the ES uptake experiment, there was used an uptake solution containing 137 mmol/L sodium chloride, 5.4 mmol/L potassium chloride, 0.81 mmol/L magnesium sulfate, 0.44 mmol/L potassium dihydrogen phosphate, 0.34 mmol/L disodium hydrogen phosphate, 1.3 mmol/L calcium chloride, 4.2 mmol/L sodium hydrogen carbonate, 5.6 mmol/L D-glucose, and 10 mmol/L HEPES and having a pH of 7.4. After completion of incubation, uptake was stopped by washing the cells with the ice-cold uptake solution. Thereafter, the cells were solubilized with a 0.2 M sodium hydroxide solution containing 0.5% sodium dodecyl sulfate (SDS), and a scintillation solution was added. The intracellular uptake of Gly-Sar or ES was calculated from the radioactivity measured using a liquid scintillation counter.

ALK5 = biological target: T1, ALK5 (Homo sapiens, UniProt P36897); conditions: cited from earlier work
T1 sequence (P36897 34-503): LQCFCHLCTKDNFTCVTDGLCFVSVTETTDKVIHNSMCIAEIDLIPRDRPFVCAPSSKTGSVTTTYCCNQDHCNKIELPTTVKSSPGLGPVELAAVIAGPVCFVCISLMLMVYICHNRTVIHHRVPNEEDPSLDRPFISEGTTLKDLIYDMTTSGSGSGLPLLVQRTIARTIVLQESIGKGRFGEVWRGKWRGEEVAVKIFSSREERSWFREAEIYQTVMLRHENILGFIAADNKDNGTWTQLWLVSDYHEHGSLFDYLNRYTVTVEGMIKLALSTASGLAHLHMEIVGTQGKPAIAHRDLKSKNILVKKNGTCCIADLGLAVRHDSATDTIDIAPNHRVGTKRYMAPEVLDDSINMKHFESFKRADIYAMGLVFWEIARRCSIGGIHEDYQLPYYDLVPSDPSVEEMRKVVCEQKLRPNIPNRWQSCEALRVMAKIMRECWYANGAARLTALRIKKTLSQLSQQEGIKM

ALK7 = biological target: T2, ALK7 (Homo sapiens, UniProt Q8NER5); conditions: cited from earlier work
T2 sequence (Q8NER5 21-493): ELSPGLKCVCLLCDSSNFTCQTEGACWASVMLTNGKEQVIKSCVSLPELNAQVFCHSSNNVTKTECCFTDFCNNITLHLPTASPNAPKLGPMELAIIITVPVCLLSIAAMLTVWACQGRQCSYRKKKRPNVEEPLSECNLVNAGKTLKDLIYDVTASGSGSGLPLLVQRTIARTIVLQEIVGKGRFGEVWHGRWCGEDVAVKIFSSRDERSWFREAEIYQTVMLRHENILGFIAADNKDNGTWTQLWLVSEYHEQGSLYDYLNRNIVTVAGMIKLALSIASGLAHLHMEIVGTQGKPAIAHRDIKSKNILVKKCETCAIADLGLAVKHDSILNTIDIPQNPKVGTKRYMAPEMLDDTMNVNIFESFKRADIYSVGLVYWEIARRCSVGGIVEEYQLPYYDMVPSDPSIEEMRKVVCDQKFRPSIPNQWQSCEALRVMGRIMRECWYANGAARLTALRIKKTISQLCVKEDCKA

ALK4 = biological target: T3, ALK4 (Homo sapiens, UniProt P36896); conditions: cited from earlier work
T3 sequence (P36896 24-505): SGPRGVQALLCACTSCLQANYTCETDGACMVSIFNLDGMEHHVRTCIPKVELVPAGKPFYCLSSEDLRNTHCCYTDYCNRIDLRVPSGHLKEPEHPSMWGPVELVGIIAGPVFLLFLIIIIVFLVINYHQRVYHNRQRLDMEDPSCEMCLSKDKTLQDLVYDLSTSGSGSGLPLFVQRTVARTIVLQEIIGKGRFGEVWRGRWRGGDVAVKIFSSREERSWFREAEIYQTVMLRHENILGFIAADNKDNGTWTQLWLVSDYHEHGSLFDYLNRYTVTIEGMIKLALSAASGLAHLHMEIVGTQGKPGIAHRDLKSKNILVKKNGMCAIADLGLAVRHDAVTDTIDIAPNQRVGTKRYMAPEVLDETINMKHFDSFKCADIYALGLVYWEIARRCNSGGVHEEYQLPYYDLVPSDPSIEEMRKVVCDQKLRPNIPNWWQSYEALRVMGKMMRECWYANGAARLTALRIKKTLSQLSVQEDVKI

CYP3A4 [1] = test: Metabolic activity of midazolam (CYP3A4 metabolic activity) in differentiated intestinal epithelial cell-like cells; type: cell-based, human; conditions: VD3 10 nmol/L; cells induced to differentiate using 8-Br-cAMP and IBMX; midazolam 100 μmol/L
Experimental: The metabolic activity was calculated from the amount of 1-hydroxymidazolam in the medium measured using a liquid chromatography-mass spectrometer (LC-MS/MS). After completion of the experiment on metabolism, protein quantification was carried out, and the metabolic activity was corrected by the amount of protein.

CYP3A4 [2] = test system: CYP3A4
mucin 2 = test: Expression (mRNA level) of mucin 2 in iPS cell-derived intestinal epithelial cell-like cells; conditions: for expression (mRNA level) of mucin 2 (mucosa protecting action): added for 6 days, irsogladine 10, 40 μM, rebamipide 50, 100, 250, 1000 μM, vs control
PEPT1 = biological target: T4, PEPT1 (Homo sapiens, UniProt P46059); test: Uptake of glycylsarcosine (Gly-Sar) (PEPT1 transport activity); type: cell-based; conditions: ibuprofen 3 mmol/L
T4 construct: uptake of glycylsarcosine (Gly-Sar) in the differentiated intestinal epithelial cell-like cells (PEPT1 transport activity); endogenous in cells; host or cells: human iPS cell (iPS-51: Windy)-derived intestinal epithelial cell-like cells
T4 sequence (P46059 1-708): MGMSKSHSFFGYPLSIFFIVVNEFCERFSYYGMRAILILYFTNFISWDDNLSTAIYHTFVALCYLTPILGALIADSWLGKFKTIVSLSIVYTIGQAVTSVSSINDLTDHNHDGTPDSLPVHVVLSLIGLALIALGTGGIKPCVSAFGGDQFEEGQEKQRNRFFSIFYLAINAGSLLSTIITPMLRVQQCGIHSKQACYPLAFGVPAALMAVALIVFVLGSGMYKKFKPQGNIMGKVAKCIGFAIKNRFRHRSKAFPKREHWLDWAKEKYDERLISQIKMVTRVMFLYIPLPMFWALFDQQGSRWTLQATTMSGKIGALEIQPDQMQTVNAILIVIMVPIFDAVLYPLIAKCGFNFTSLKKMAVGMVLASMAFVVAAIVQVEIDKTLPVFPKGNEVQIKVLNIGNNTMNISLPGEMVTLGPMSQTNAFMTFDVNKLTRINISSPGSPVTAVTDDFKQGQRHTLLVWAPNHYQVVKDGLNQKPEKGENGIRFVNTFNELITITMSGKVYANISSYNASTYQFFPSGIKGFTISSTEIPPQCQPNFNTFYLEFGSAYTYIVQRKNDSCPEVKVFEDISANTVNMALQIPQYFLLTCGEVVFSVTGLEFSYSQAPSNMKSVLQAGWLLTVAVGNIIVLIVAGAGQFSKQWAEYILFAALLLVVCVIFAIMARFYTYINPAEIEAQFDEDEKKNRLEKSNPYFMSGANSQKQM
Experimental: as §1

SMILES: O=C1OC(c2ccc(O)c(S(=O)(=O)O)c2)(c2ccc(O)c(S(=O)(=O)O)c2)c2c(Br)c(Br)c(Br)c(Br)c21 [BSP, bromsulphthalein]
uptake of ES in the presence of inhibitor (OATP): significantly reduced

SMILES: Cc1cccc(-c2nn(C(=S)Nc3ccccc3)cc2-c2ccnc3ccccc23)n1 [A-83-01]
inhibitory activity against TGF-β receptor ALK5 (ALK5): shows inhibitory activity | inhibitory activity against TGF-β receptor ALK7 (ALK7): shows inhibitory activity | inhibitory activity against TGF-β receptor ALK4 (ALK4): shows inhibitory activity

SMILES: C=C1/C(=C\C=C2/CCC[C@]3(C)[C@@H]([C@H](C)CCCC(C)(C)O)CC[C@@H]23)C[C@@H](O)C[C@@H]1O [1α,25-dihydroxyvitamin D3]
activity of CYP3A4 (1-hydroxymidazolam formation) upon inducer treatment (CYP3A4 [1]): significantly increased | induction of CYP3A4 expression (CYP3A4 [2]): observed

expression (mRNA level) of mucin 2 (mucosa damaging action) (mucin 2; ketoprofen 200 μM for 6 days, excepted from the decrease seen with NSAIDs): except for ketoprofen-200
SMILES: CC(C(=O)O)c1cccc(C(=O)c2ccccc2)c1 (centres unmarked) [ketoprofen]

SMILES: O=C(NC(Cc1cc(=O)[nH]c2ccccc12)C(=O)O)c1ccc(Cl)cc1 (centres unmarked) [rebamipide]
expression (mRNA level) of mucin 2 (mucosa protecting action) (mucin 2): increased

Gly-Sar uptake in the presence of inhibitor (PEPT1; cells by the conventional differentiation method): significantly reduced | Gly-Sar uptake in the presence of inhibitor (PEPT1; cells induced to differentiate using 8-Br-cAMP and IBMX): significantly reduced
SMILES: CC(C)Cc1ccc(C(C)C(=O)O)cc1 (centres unmarked) [ibuprofen]

SMILES: Nc1nc(N)nc(-c2cc(Cl)ccc2Cl)n1 [irsogladine]
expression (mRNA level) of mucin 2 (mucosa protecting action) (mucin 2): increased
